Source: US20240109900A1, “AZABICYCLIC SHP2 INHIBITORS” (IRBM S.P.A., priority 2021, published 2024)
pIC50: −log10 of the molar value. Read-outs that look alike come from different tables or passages of the source.

Key:
[1] = system: ERK phosphorylation in KYSE-520 cells; experiment: Phospho-ERK cellular assay; assay type: cell-based; conditions: Homo sapiens, KYSE-520 cells, 2 h at 37° C., phospho-ERK1/2 (Thr202/Tyr204) TR-FRET, read-out: PERK IC50
How it was run: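 TR-FRET read-out of ERK1/2 Thr202/Tyr204 phosphorylation was taken after overnight antibody incubation at room temperature. Before that, KYSE-520 cells were treated 2 h at 37 °C with compound dilutions and lysed 30 min. Percent inhibition relative to vehicle and cell-free wells was fitted four-parametrically to give IC50.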

[2] = biological target: SHP-2 enzyme (Met1-Leu525) (Homo sapiens (Human), UniProt Q06124); experiment: SHP2 inhibition enzymatic assay; assay type: biochemical; conditions: 0.5 nM SHP-2 activated by 500 nM IRS1 peptide, 75 μM DiFMUP substrate; read-out: SHP2wt-IC50
Sequence of SHP-2 enzyme (Met1-Leu525) (Q06124 1-525): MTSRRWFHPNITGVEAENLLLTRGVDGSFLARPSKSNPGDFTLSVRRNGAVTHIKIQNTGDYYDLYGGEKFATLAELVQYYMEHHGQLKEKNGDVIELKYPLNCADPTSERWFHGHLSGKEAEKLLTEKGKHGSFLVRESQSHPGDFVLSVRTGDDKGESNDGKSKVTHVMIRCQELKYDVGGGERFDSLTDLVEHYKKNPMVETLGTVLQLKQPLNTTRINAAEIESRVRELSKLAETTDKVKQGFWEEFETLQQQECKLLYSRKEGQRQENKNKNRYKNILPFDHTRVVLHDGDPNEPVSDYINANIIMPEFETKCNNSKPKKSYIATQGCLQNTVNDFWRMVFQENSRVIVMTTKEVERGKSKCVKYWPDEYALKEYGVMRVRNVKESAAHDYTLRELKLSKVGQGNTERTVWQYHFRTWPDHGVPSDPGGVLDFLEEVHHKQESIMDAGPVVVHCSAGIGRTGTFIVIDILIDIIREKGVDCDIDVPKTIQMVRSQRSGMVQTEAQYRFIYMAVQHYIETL
How it was run: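 SHP-2 (Met1-Leu525), 0.5 nM, activated with 500 nM IRS1 bis-phosphopeptide, preincubated 30 min with compounds in HEPES pH 7.2 buffer with 5 mM DTT. 75 μM DiFMUP added for 30 min at room temperature, stopped with bpV; fluorescence read. IC50 from four-parameter logistic fit of % inhibition.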

Cc1nn(C)c(C)c1-c1n[nH]c2nc(N3CC[C@@H]4[C@H](C3)[C@@]4(CN)c3ccccc3F)cnc12 [Example 371, ((1S,6R,7R)-7-(2-fluorophenyl)-3-(3-(1,3,5-trimethyl-1H-pyrazol-4-yl)-1H-pyrazolo[3,4-b]pyrazin-6-yl)-3-azabicyclo[4.1.0]heptan-7-yl)methanamine]
pIC50 ([1]; KYSE-520, 2 h): < 5.30
pIC50 [2]: < 5.52

NC[C@]1(c2ccccc2F)[C@@H]2CCN(c3cnc4c(-c5ccc6c(c5)NC(=O)NC6)n[nH]c4n3)C[C@@H]21 [Example 372, 7-(6-((1S,6R,7R)-7-(aminomethyl)-7-(2-fluorophenyl)-3-azabicyclo[4.1.0]heptan-3-yl)-1H-pyrazolo[3,4-b]pyrazin-3-yl)-3,4-dihydroquinazolin-2(1H)-one]
pIC50 ([1]; KYSE-520, 2 h): > 6.00
pIC50 [2]: > 6.30

NC[C@]1(c2ccccc2F)[C@@H]2CCN(c3cnc4c(-c5ccc6c(c5Cl)C(F)(F)C(=O)N6)n[nH]c4n3)C[C@@H]21 [Example 373, 5-(6-((1S,6R,7R)-7-(aminomethyl)-7-(2-fluorophenyl)-3-azabicyclo[4.1.0]heptan-3-yl)-1H-pyrazolo[3,4-b]pyrazin-3-yl)-4-chloro-3,3-difluoroindolin-2-one]
pIC50 ([1]; KYSE-520, 2 h): > 6.00
pIC50 [2]: > 6.30

NC[C@]1(c2ccccc2F)[C@@H]2CCN(c3cnc4c(-c5ccc(O)c(F)c5F)n[nH]c4n3)C[C@@H]21 [Example 374, 4-(6-((1S,6R,7R)-7-(aminomethyl)-7-(2-fluorophenyl)-3-azabicyclo[4.1.0]heptan-3-yl)-1H-pyrazolo[3,4-b]pyrazin-3-yl)-2,3-difluorophenol]
pIC50 ([1]; KYSE-520, 2 h): > 6.00
pIC50 [2]: > 6.30

NC[C@]1(c2ccccc2F)[C@@H]2CCN(c3cnc4c(-c5cc6c(cc5Cl)NC(=O)C6=O)n[nH]c4n3)C[C@@H]21 [Example 375, 5-(6-((1S,6R,7R)-7-(aminomethyl)-7-(2-fluorophenyl)-3-azabicyclo[4.1.0]heptan-3-yl)-1H-pyrazolo[3,4-b]pyrazin-3-yl)-6-chloroindoline-2,3-dione]
pIC50 ([1]; KYSE-520, 2 h): > 6.00
pIC50 [2]: > 6.30

NC[C@]1(c2ccccc2F)[C@@H]2CCN(c3cnc4c(-c5ccc(F)c6ncccc56)n[nH]c4n3)C[C@@H]21 [Example 376, ((1S,6R,7R)-7-(2-fluorophenyl)-3-(3-(8-fluoroquinolin-5-yl)-1H-pyrazolo[3,4-b]pyrazin-6-yl)-3-azabicyclo[4.1.0]heptan-7-yl)methanamine]
pIC50 ([1]; KYSE-520, 2 h): > 6.00
pIC50 [2]: > 6.30

Cc1nc(-c2ccc(-c3n[nH]c4nc(N5CC[C@@H]6[C@H](C5)[C@@]6(CN)c5ccccc5F)cnc34)c(Cl)c2)no1 [Example 377, ((1S,6R,7R)-3-(3-(2-chloro-4-(5-methyl-1,2,4-oxadiazol-3-yl)phenyl)-1H-pyrazolo[3,4-b]pyrazin-6-yl)-7-(2-fluorophenyl)-3-azabicyclo[4.1.0]heptan-7-yl)methanamine]
pIC50 ([1]; KYSE-520, 2 h): > 6.00
pIC50 [2]: > 6.30

Cn1cc2c(Cl)c(-c3c[nH]c4nc(N5CC[C@@H]6[C@H](C5)[C@@]6(CN)c5ccccc5F)n(C)c(=O)c34)ccc2n1 [Example 378, 2-((1S,6R,7R)-7-(aminomethyl)-7-(2-fluorophenyl)-3-azabicyclo[4.1.0]heptan-3-yl)-5-(4-chloro-2-methyl-2H-indazol-5-yl)-3-methyl-3,7-dihydro-4H-pyrrolo[2,3-d]pyrimidin-4-one]
pIC50 ([1]; KYSE-520, 2 h): > 6.00
pIC50 [2]: > 6.30

Cn1c(N2CC[C@@H]3[C@H](C2)[C@@]3(CN)c2ccccc2F)nc2[nH]cc(-c3ccc4c(=O)[nH]ccc4c3F)c2c1=O [Example 380, 6-(2-((1S,6R,7R)-7-(aminomethyl)-7-(2-fluorophenyl)-3-azabicyclo[4.1.0]heptan-3-yl)-3-methyl-4-oxo-4,7-dihydro-3H-pyrrolo[2,3-d]pyrimidin-5-yl)-5-fluoroisoquinolin-1(2H)-one]
pIC50 ([1]; KYSE-520, 2 h): > 6.00
pIC50 [2]: > 6.30

NC[C@]1(c2ccccc2F)[C@@H]2CCN(c3cnc4c(-c5cc(F)c(CO)c(F)c5)n[nH]c4n3)C[C@@H]21 [Example 381, (4-(6-((1S,6R,7R)-7-(aminomethyl)-7-(2-fluorophenyl)-3-azabicyclo[4.1.0]heptan-3-yl)-1H-pyrazolo[3,4-b]pyrazin-3-yl)-2,6-difluorophenyl)methanol]
pIC50 ([1]; KYSE-520, 2 h): < 5.30
pIC50 [2]: > 6.30

NC[C@]1(c2ccccc2F)[C@@H]2CCN(c3cnc4c(ccn4-c4ccnc5ccccc45)n3)C[C@@H]21 [Example 382, ((1S,6R,7R)-7-(2-fluorophenyl)-3-(5-(quinolin-4-yl)-5H-pyrrolo[2,3-b]pyrazin-2-yl)-3-azabicyclo[4.1.0]heptan-7-yl)methanamine]
pIC50 ([1]; KYSE-520, 2 h): < 5.30
pIC50 [2]: > 6.30

CC(=O)NC[C@]1(c2ccccc2F)[C@@H]2CCN(c3cnc4c(-c5ccc6nn(C)cc6c5)n[nH]c4n3)C[C@@H]21 [Example 383, N-(((1S,6R,7R)-7-(2-fluorophenyl)-3-(3-(2-methyl-2H-indazol-5-yl)-1H-pyrazolo[3,4-b]pyrazin-6-yl)-3-azabicyclo[4.1.0]heptan-7-yl)methyl)acetamide]
pIC50 ([1]; KYSE-520, 2 h): > 6.00
pIC50 [2]: < 5.52

NC[C@]1(c2ccccc2F)[C@@H]2CCN(c3cnc(Sc4ccnc(N)c4Cl)c(N)n3)C[C@@H]21 [Example 384, 3-((2-amino-3-chloropyridin-4-yl)thio)-6-((1S,6R,7R)-7-(aminomethyl)-7-(2-fluorophenyl)-3-azabicyclo[4.1.0]heptan-3-yl)pyrazin-2-amine]
pIC50 ([1]; KYSE-520, 2 h): > 6.00
pIC50 [2]: > 6.30

NC[C@]1(c2ccccc2F)[C@@H]2CCN(c3ccc4nc(Sc5ccnc(N)c5Cl)cnc4n3)C[C@@H]21 [Example 385, 4-((6-((1S,6R,7R)-7-(aminomethyl)-7-(2-fluorophenyl)-3-azabicyclo[4.1.0]heptan-3-yl)pyrido[2,3-b]pyrazin-2-yl)thio)-3-chloropyridin-2-amine]
pIC50 [1]: > 6.00
pIC50 [2]: > 6.30

NC[C@]1(c2ccccc2F)[C@@H]2CCN(c3cnc4c(-c5ccnc(N6CC[C@H](CO)C6)c5Cl)n[nH]c4n3)C[C@@H]21 [Example 386, ((S)-1-(4-(6-((1S,6R,7R)-7-(aminomethyl)-7-(2-fluorophenyl)-3-azabicyclo[4.1.0]heptan-3-yl)-1H-pyrazolo[3,4-b]pyrazin-3-yl)-3-chloropyridin-2-yl)pyrrolidin-3-yl)methanol]
pIC50 ([1]; KYSE-520, 2 h): > 6.00
pIC50 [2]: > 6.30

NC[C@]1(c2ccccc2F)[C@@H]2CCN(c3cnc(Sc4ccnc(-n5cccn5)c4Cl)cn3)C[C@@H]21 [Example 388, ((1S,6R,7R)-3-(5-((3-chloro-2-(1H-pyrazol-1-yl)pyridin-4-yl)thio)pyrazin-2-yl)-7-(2-fluorophenyl)-3-azabicyclo[4.1.0]heptan-7-yl)methanamine]
pIC50 ([1]; KYSE-520, 2 h): > 6.00
pIC50 [2]: > 6.30

NC[C@]1(c2ccccc2F)[C@@H]2CCN(c3cnc4c(-c5cnn(-c6ccccc6)c5)n[nH]c4n3)C[C@@H]21 [Example 390, ((1S,6R,7R)-7-(2-fluorophenyl)-3-(3-(1-phenyl-1H-pyrazol-4-yl)-1H-pyrazolo[3,4-b]pyrazin-6-yl)-3-azabicyclo[4.1.0]heptan-7-yl)methanamine]
pIC50 ([1]; KYSE-520, 2 h): < 5.30
pIC50 [2]: > 6.30

COCCn1cc2c(Cl)c(-c3n[nH]c4nc(N5CC[C@@H]6[C@H](C5)[C@@]6(CN)c5ccccc5F)cnc34)ccc2n1 [Example 393, ((1S,6R,7R)-3-(3-(4-chloro-2-(2-methoxyethyl)-2H-indazol-5-yl)-1H-pyrazolo[3,4-b]pyrazin-6-yl)-7-(2-fluorophenyl)-3-azabicyclo[4.1.0]heptan-7-yl)methanamine]
pIC50 ([1]; KYSE-520, 2 h): > 6.00
pIC50 [2]: > 6.30

Cn1cc2cc(-c3ccc4nc(N5CC[C@H]6[C@@H](C5)[C@]6(CN)c5ccccc5F)ccc4n3)ccc2n1 [Example 394, ((1R,6S,7S)-7-(2-fluorophenyl)-3-(6-(2-methyl-2H-indazol-5-yl)-1,5-naphthyridin-2-yl)-3-azabicyclo[4.1.0]heptan-7-yl)methanamine]
pIC50 ([1]; KYSE-520, 2 h): > 6.00
pIC50 [2]: < 5.52

NC[C@]1(c2ccccc2F)[C@@H]2CCN(c3cnc4nc(Sc5ccnc(N)c5Cl)ccc4n3)C[C@@H]21 [Example 395, 4-((2-((1S,6R,7R)-7-(aminomethyl)-7-(2-fluorophenyl)-3-azabicyclo[4.1.0]heptan-3-yl)pyrido[2,3-b]pyrazin-6-yl)thio)-3-chloropyridin-2-amine]
pIC50 ([1]; KYSE-520, 2 h): > 6.00
pIC50 [2]: > 6.30

Cn1cnc2ccc(-c3n[nH]c4nc(N5CC[C@@H]6[C@H](C5)[C@@]6(CN)c5cc(F)ccc5F)cnc34)c(Cl)c21 [Example 396, ((1S,6R,7R)-3-(3-(7-chloro-1-methyl-1H-benzo[d]imidazol-6-yl)-1H-pyrazolo[3,4-b]pyrazin-6-yl)-7-(2,5-difluorophenyl)-3-azabicyclo[4.1.0]heptan-7-yl)methanamine]
pIC50 ([1]; KYSE-520, 2 h): > 6.00
pIC50 [2]: > 6.30

NC[C@]1(c2ccccc2F)[C@@H]2CCN(c3cnc4c(Sc5ccnc(N)c5Cl)n[nH]c4n3)C[C@@H]21 [Example 397, 4-((6-((1S,6R,7R)-7-(aminomethyl)-7-(2-fluorophenyl)-3-azabicyclo[4.1.0]heptan-3-yl)-1H-pyrazolo[3,4-b]pyrazin-3-yl)thio)-3-chloropyridin-2-amine]
pIC50 ([1]; KYSE-520, 2 h): > 6.00
pIC50 [2]: > 6.30
